In patent publication US10787462B2, “Heterocyclic compound” (TAKEDA PHARMACEUTICAL COMPANY LIMITED, priority 2015, dated 2020):

target: T1, human RIPK1 (1-375) (Homo sapiens, UniProt Q13546); assay: Human RIPK1 enzyme inhibitory effect (ADP-Glo Kinase Assay); format: biochemical; conditions: 10 μM test compound; well without enzyme = 100% inhibition; 10 µM
T1 construct: human RIPK1 (1-375) gene; GST; made in house; host or cells: Sf-9 insect cells
T1 sequence (Q13546 1-375): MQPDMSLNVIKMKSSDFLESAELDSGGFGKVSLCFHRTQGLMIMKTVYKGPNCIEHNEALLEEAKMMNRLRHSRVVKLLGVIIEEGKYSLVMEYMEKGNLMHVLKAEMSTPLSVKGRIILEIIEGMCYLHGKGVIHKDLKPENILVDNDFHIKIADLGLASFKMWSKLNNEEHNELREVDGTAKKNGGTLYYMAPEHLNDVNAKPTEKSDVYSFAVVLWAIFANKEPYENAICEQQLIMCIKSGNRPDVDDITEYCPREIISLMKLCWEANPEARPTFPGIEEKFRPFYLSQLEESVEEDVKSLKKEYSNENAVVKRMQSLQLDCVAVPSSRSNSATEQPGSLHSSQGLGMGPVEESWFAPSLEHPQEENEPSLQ
Summary of the method: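 ADP-Glo luminescence read-out of ADP formed over 120 min at room temperature after adding 0.6 mM ATP solution (stock concentration). Compound and Sf-9-expressed, GST-purified RIPK1 (1-375) were first incubated together for 20 min in HEPES pH 7.5 buffer with MgCl2, Tween-20 and DTT.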

human RIPK1 enzyme inhibitory effect at 10 μM (% inhibition) [%]	Structure (SMILES)
61	CN1C(=O)C(N2CCc3c(nn(Cc4ccccc4)c3Cl)C2=O)CCc2cn(C)nc21 (centres unmarked) [Example 113, 6-(2-benzyl-3-chloro-7-oxo-2,4,5,7-tetrahydro-6H-pyrazolo[3,4-c]pyridin-6-yl)-2,8-dimethyl-2,5,6,8-tetrahydropyrazolo[3,4-b]azepin-7(4H)-one]
101	CN1C(=O)C(N2CCc3c(nn(Cc4ccccc4)c3Cl)C2=O)CCc2cccnc21 (centres unmarked) [Example 94, 7-(2-benzyl-3-chloro-7-oxo-2,4,5,7-tetrahydro-6H-pyrazolo[3,4-c]pyridin-6-yl)-9-methyl-5,6,7,9-tetrahydro-8H-pyrido[2,3-b]azepin-8-one]
95	CN1C(=O)C(N2CCc3c(nn(Cc4ccccc4F)c3Cl)C2=O)CCc2cnccc21 (centres unmarked) [Example 106, 3-(3-chloro-2-(2-fluorobenzyl)-7-oxo-2,4,5,7-tetrahydro-6H-pyrazolo[3,4-c]pyridin-6-yl)-1-methyl-1,3,4,5-tetrahydro-2H-pyrido[4,3-b]azepin-2-one]

same assay, conditions: read-out: human RIPK1 enzyme inhibitory effect at 10 μM (% inhibition), 10 μM test compound; well without enzyme = 100% inhibition

inhibition at 10 µM [%]	Structure (SMILES)
100	CNC(=O)c1ccc2c(c1)OC[C@H](N1CCc3c(nn(Cc4c(F)cccc4F)c3Cl)C1=O)C(=O)N2C [Example 46, (3S)-3-(3-chloro-2-(2,6-difluorobenzyl)-7-oxo-2,4,5,7-tetrahydro-6H-pyrazolo[3,4-c]pyridin-6-yl)-N,5-dimethyl-4-oxo-2,3,4,5-tetrahydro-1,5-benzoxazepine-8-carboxamide]
100	Cc1c2c(nn1Cc1ccccc1)C(=O)N([C@H]1COc3cc(C#N)ccc3N(C)C1=O)CC2 [Example 86]
100	CN1C(=O)[C@@H](N2CCc3cn(CC4CCCC4)nc3C2=O)COc2ccccc21 [Example 37, (3S)-3-(2-(cyclopentylmethyl)-7-oxo-2,4,5,7-tetrahydro-6H-pyrazolo[3,4-c]pyridin-yl)-5-methyl-2,3-dihydro-1,5-benzoxazepin-4(5H)-one]
99	CN1C(=O)[C@@H](N2CCc3cn(Cc4cccc(F)c4)nc3C2=O)COc2ccccc21 [Example 158, (3S)-3-(2-(3-fluorobenzyl)-7-oxo-2,4,5,7-tetrahydro-6H-pyrazolo[3,4-c]pyridin-6-yl)-5-methyl-2,3-dihydro-1,5-benzoxazepin-4(5H)-one]
96	CN1C(=O)[C@@H](N2CCc3cn(Cc4ncco4)nc3C2=O)COc2ccccc21 [Example 35, (3S)-5-methyl-3-(2-(1,3-oxazol-2-ylmethyl)-7-oxo-2,4,5,7-tetrahydro-6H-pyrazolo[3,4-c]pyridin-6-yl)-2,3-dihydro-1,5-benzoxazepin-4(5H)-one]
101	CN1C(=O)[C@@H](N2CCc3cn(Cc4ccccc4F)nc3C2=O)COc2ccc(C#N)cc21 [Example 77, (3S)-3-(2-(2-fluorobenzyl)-7-oxo-2,4,5,7-tetrahydro-6H-pyrazolo[3,4-c]pyridin-6-yl)-5-methyl-4-oxo-2,3,4,5-tetrahydro-1,5-benzoxazepine-7-carbonitrile]
101	CN1C(=O)[C@@H](N2CCc3c(nn(Cc4ccccc4)c3Cl)C2=O)COc2cc(C(=O)NCCOCCOCCOCCOc3ccc4ccccc4c3)ccc21 [Example 148, (3S)-3-(2-benzyl-3-chloro-7-oxo-2,4,5,7-tetrahydro-6H-pyrazolo[3,4-c]pyridin-6-yl)-5-methyl-N-(2-(2-(2-(2-(2-naphthyloxy)ethoxy)ethoxy)ethoxy)ethyl)-4-oxo-2,3,4,5-tetrahydro-1,5-benzoxazepine-8-carboxamide]

Second part, the molecule before the results:

Structure (SMILES)	inhibition at 10 µM [%]
CNC(=O)c1ccc2c(c1)OC[C@H](N1CCc3cn(Cc4c(F)cccc4F)nc3C1=O)C(=O)N2C [Example 116, (3S)-3-(2-(2,6-difluorobenzyl)-7-oxo-2,4,5,7-tetrahydro-6H-pyrazolo[3,4-c]pyridin-6-yl)-N,5-dimethyl-4-oxo-2,3,4,5-tetrahydro-1,5-benzoxazepine-8-carboxamide]	101
CN1C(=O)C(N2CCc3c(nn(Cc4ccccc4F)c3Cl)C2=O)CCc2ccncc21 (centres unmarked) [Example 103, 3-(3-chloro-2-(2-fluorobenzyl)-7-oxo-2,4,5,7-tetrahydro-6H-pyrazolo[3,4-c]pyridin-6-yl)-1-methyl-1,3,4,5-tetrahydro-2H-pyrido[3,4-b]azepin-2-one]	99
CN1C(=O)[C@@H](N2CCc3c(nn(Cc4ccccc4)c3Cl)C2=O)COc2cc(-c3ccn(C)n3)ccc21 [Example 108, (3S)-3-(2-benzyl-3-chloro-7-oxo-2,4,5,7-tetrahydro-6H-pyrazolo[3,4-c]pyridin-6-yl)-5-methyl-8-(1-methyl-1H-pyrazol-3-yl)-2,3-dihydro-1,5-benzoxazepin-4(5H)-one]	100
CNC(=O)c1cc2c(cc1F)N(C)C(=O)[C@@H](N1CCc3c(nn(Cc4ccccc4)c3Cl)C1=O)CO2 [Example 122, (3S)-3-(2-benzyl-3-chloro-7-oxo-2,4,5,7-tetrahydro-6H-pyrazolo[3,4-c]pyridin-6-yl)-7-fluoro-N,5-dimethyl-4-oxo-2,3,4,5-tetrahydro-1,5-benzoxazepine-8-carboxamide]	101
Cc1c2c(nn1Cc1ccccc1)C(=O)N([C@H]1COc3cc(C(N)=O)ccc3N(C)C1=O)CC2 [Example 88, (3S)-3-(2-benzyl-3-methyl-7-oxo-2,4,5,7-tetrahydro-6H-pyrazolo[3,4-c]pyridin-6-yl)-5-methyl-4-oxo-2,3,4,5-tetrahydro-1,5-benzoxazepine-8-carboxamide]	101
CN1C(=O)[C@@H](N2CCc3cn(CC4COCCO4)nc3C2=O)COc2ccccc21 (stereo partly drawn) [Example 38, (3S)-3-(2-(1,4-dioxan-2-ylmethyl)-7-oxo-2,4,5,7-tetrahydro-6H-pyrazolo[3,4-c]pyridin-6-yl)-5-methyl-2,3-dihydro-1,5-benzoxazepin-4(5H)-one]	96
CN1C(=O)[C@@H](N2CCCn3nc(Cc4ccccc4)nc3C2=O)COc2ccccc21 [Example 2, (3S)-3-(2-benzyl-9-oxo-6,7-dihydro-5H-[1,2,4]triazolo[1,5-a][1,4]diazepin-8(9H)-yl)-5-methyl-2,3-dihydro-1,5-benzoxazepin-4(5H)-one]	91
CN1C(=O)[C@@H](N2CCc3cn(Cc4ccccc4C#N)nc3C2=O)COc2ccccc21 [Example 28, 2-((6-((3S)-5-methyl-4-oxo-2,3,4,5-tetrahydro-1,5-benzoxazepin-3-yl)-7-oxo-4,5,6,7-tetrahydro-2H-pyrazolo[3,4-c]pyridin-2-yl)methyl)benzonitrile]	99
CN1C(=O)[C@@H](N2CCc3cn(Cc4cccc(Cl)c4)nc3C2=O)COc2ccccc21 [Example 26, (3S)-3-(2-(3-chlorobenzyl)-7-oxo-2,4,5,7-tetrahydro-6H-pyrazolo[3,4-c]pyridin-6-yl)-5-methyl-2,3-dihydro-1,5-benzoxazepin-4(5H)-one]	100
CN1C(=O)[C@@H](N2CCc3cn(Cc4ccccc4)nc3C2=O)CSc2ccccc21 [Example 19, (3R)-3-(2-benzyl-7-oxo-2,4,5,7-tetrahydro-6H-pyrazolo[3,4-c]pyridin-6-yl)-5-methyl-2,3-dihydro-1,5-benzothiazepin-4(5H)-one]	99
CN1C(=O)[C@@H](N2CCc3cn(Cc4ccc(C#N)cc4)nc3C2=O)COc2ccccc21 [Example 30, 4-((6-((3S)-5-methyl-4-oxo-2,3,4,5-tetrahydro-1,5-benzoxazepin-3-yl)-7-oxo-4,5,6,7-tetrahydro-2H-pyrazolo[3,4-c]pyridin-2-yl)methyl)benzonitrile]	97
CN1C(=O)C(N2CCc3c(nn(Cc4ccccc4)c3Cl)C2=O)CCc2c1cnn2C (centres unmarked) [Example 126, 6-(2-benzyl-3-chloro-7-oxo-2,4,5,7-tetrahydro-6H-pyrazolo[3,4-c]pyridin-6-yl)-1,4-dimethyl-4,6,7,8-tetrahydropyrazolo[4,3-b]azepin-5(1H)-one]	98
CN1C(=O)[C@@H](N2CCc3cn(Cc4c(Cl)cccc4C#N)nc3C2=O)COc2ccccc21 [Example 165, 3-chloro-2-((6-((3S)-5-methyl-4-oxo-2,3,4,5-tetrahydro-1,5-benzoxazepin-3-yl)-7-oxo-4,5,6,7-tetrahydro-2H-pyrazolo[3,4-c]pyridin-2-yl)methyl)benzonitrile]	99
CN1C(=O)[C@@H](N2CCc3cn(CC4CCC4)nc3C2=O)COc2ccccc21 [Example 31, (3S)-3-(2-(cyclobutylmethyl)-7-oxo-2,4,5,7-tetrahydro-6H-pyrazolo[3,4-c]pyridin-6-yl)-5-methyl-2,3-dihydro-1,5-benzoxazepin-4(5H)-one]	98
CN1C(=O)[C@@H](N2CCc3cn(Cc4ccccn4)nc3C2=O)COc2ccccc21 [Example 32, (3S)-5-methyl-3-(7-oxo-2-(pyridin-2-ylmethyl)-2,4,5,7-tetrahydro-6H-pyrazolo[3,4-c]pyridin-6-yl)-2,3-dihydro-1,5-benzoxazepin-4(5H)-one]	97
CN1C(=O)[C@@H](N2CCc3cn(Cc4ccc(S(C)(=O)=O)cc4)nc3C2=O)COc2ccccc21 [Example 164, (3S)-5-methyl-3-(2-(4-(methylsulfonyl)benzyl)-7-oxo-2,4,5,7-tetrahydro-6H-pyrazolo[3,4-c]pyridin-6-yl)-2,3-dihydro-1,5-benzoxazepin-4(5H)-one]	98
